Biological target: T1, hFXR (Homo sapiens, UniProt Q96RI1)
T1 construct: expressed in transfected cells; host or cells: CV-1 cells
T1 sequence (Q96RI1 1-486): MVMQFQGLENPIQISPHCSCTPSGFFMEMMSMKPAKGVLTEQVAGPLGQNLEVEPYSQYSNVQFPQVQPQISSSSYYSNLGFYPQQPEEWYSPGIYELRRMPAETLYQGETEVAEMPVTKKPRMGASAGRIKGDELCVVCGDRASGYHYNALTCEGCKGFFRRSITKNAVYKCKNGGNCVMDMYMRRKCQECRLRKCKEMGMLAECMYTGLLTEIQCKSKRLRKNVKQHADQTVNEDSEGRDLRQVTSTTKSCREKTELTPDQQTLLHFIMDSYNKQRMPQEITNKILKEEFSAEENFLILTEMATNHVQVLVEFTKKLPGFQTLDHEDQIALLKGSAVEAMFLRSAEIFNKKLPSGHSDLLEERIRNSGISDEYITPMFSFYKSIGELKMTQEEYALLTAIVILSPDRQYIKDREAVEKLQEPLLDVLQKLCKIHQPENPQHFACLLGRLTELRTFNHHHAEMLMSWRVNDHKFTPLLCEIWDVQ
T1 sequence (P19793 1-462 partner): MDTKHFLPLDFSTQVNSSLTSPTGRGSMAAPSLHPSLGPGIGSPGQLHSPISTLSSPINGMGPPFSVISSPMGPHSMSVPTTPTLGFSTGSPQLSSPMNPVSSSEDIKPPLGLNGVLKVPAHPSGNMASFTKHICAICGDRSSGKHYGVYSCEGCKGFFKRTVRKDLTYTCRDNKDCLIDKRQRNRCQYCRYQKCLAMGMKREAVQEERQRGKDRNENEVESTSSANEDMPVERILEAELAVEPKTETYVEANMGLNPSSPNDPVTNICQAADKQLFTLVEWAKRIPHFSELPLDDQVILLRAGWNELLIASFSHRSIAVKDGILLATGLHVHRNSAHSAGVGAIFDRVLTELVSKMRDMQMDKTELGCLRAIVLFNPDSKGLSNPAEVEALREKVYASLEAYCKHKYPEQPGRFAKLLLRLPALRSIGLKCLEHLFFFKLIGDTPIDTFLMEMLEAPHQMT
Test: In Vitro FXR Assay (TK): TK-ECRE-luc reporter in transfected CV-1 cells
Type: cell-based
Conditions: 18 hrs, luminescence, maximum efficacy of <25% of the Fexarmine control classified as '+'
Outline: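 CV-1 cells in DMEM with 10% charcoal-stripped FBS were co-transfected with hFXR, hRXR, TK-ECRE-luc reporter and pCMX-YFP plasmids. After 18 h, compounds serially diluted in DMSO were added for a further 18 h, then cells were lysed and luminescence read.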

| SMILES | EC50 |
| --- | --- |
| COc1ncc(-c2cccc(N(C[C@H]3CC[C@H](c4ccc(OC)c(C)c4)CC3)C(=O)[C@H]3CC[C@H](CNC(=O)OC(C)(C)C)CC3)c2)s1 [Compound 25.02, tert-Butyl ((trans-4-(((trans-4-(4-methoxy-3-methylphenyl)cyclohexyl)methyl)(3-(2-methoxythiazol-5-yl)phenyl)carbamoyl)cyclohexyl)methyl)carbamate] | 250 to 1000 nM |
| COc1ncc(-c2cccc(N(C[C@H]3CC[C@H](c4ccc(OC)c(C)c4)CC3)C(=O)[C@H]3CC[C@H](CN)CC3)c2)s1 [Compound 25.03, trans-4-(Aminomethyl)-N-((trans-4-(4-methoxy-3-methylphenyl)cyclohexyl)methyl)-N-(3-(2-methoxythiazol-5-yl)phenyl)cyclohexanecarboxamide] | ≥ 1000 nM |
| COc1ncc(-c2cccc(N(C[C@H]3CC[C@H](c4ccc(OC)c(C)c4)CC3)C(=O)[C@H]3CC[C@H](NC(C)=O)CC3)c2)s1 [Compound 25.04, trans-4-Acetamido-N-((trans-4-(4-methoxy-3-methylphenyl)cyclohexyl)methyl)-N-(3-(2-methoxythiazol-5-yl)phenyl)cyclohexanecarboxamide] | ≤ 250 nM |
| COC(=O)N[C@H]1CC[C@H](C(=O)N(C[C@H]2CC[C@H](c3ccc(OC)c(C)c3)CC2)c2cccc(-c3cnc(OC)s3)c2)CC1 [Compound 25.05, Methyl (trans-4-(((trans-4-(4-methoxy-3-methylphenyl)cyclohexyl)methyl)(3-(2-methoxythiazol-5-yl)phenyl)carbamoyl)cyclohexyl) carbamate] | ≤ 250 nM |
| COc1ncc(-c2cccc(N(C[C@H]3CC[C@H](c4ccc(OC)c(C)c4)CC3)C(=O)[C@H]3CC[C@H](CNC(C)=O)CC3)c2)s1 [Compound 25.06, trans-4-(Acetamidomethyl)-N-((trans-4-(4-methoxy-3-methylphenyl)cyclohexyl)methyl)-N-(3-(2-methoxythiazol-5-yl)phenyl)cyclohexanecarboxamide] | ≤ 250 nM |
| COC(=O)NC[C@H]1CC[C@H](C(=O)N(C[C@H]2CC[C@H](c3ccc(OC)c(C)c3)CC2)c2cccc(-c3cnc(OC)s3)c2)CC1 [Compound 25.07, Methyl ((trans-4-(((trans-4-(4-methoxy-3-methylphenyl)cyclohexyl)methyl)(3-(2-methoxythiazol-5-yl)phenyl)carbamoyl)cyclohexyl)methyl)carbamate] | ≤ 250 nM |
| COc1ncc(-c2cccc(N(C[C@H]3CC[C@H](c4ccc(OC)c(C)c4)CC3)C(=O)[C@H]3CC[C@H](CNS(C)(=O)=O)CC3)c2)s1 [Compound 25.08, trans-N-((trans-4-(4-Methoxy-3-methylphenyl)cyclohexyl)methyl)-N-(3-(2-methoxythiazol-5-yl)phenyl)-4-(methylsulfonamidomethyl) cyclohexanecarboxamide] | ≤ 250 nM |
| COc1ccc([C@H]2CC[C@H](CN(c3cccc(-c4cnc(C5CC5)s4)c3)C(=O)[C@H]3CC[C@H](NC(C)=O)CC3)CC2)cc1C [Compound 25.09, trans-4-Acetamido-N-(3-(2-cyclopropylthiazol-5-yl)phenyl)-N-((trans-4-(4-methoxy-3-methylphenyl)cyclohexyl)methyl) cyclohexanecarboxamide] | ≤ 250 nM |
| COc1ccc([C@H]2CC[C@H](CN(c3cccc(-c4cnc(C5CC5)s4)c3)C(=O)[C@H]3CC[C@H](N(C)C(C)=O)CC3)CC2)cc1C [Compound 25.10, trans-N-(3-(2-Cyclopropylthiazol-5-yl)phenyl)-N-((trans-4-(4-methoxy-3-methylphenyl)cyclohexyl)methyl)-4-(N-methylacetamido) cyclohexanecarboxamide] | ≤ 250 nM |
| COc1ccc([C@H]2CC[C@H](CN(c3cccc(-c4cnc(C5CC5)s4)c3)C(=O)[C@H]3CC[C@H](NS(C)(=O)=O)CC3)CC2)cc1C [Compound 25.11, trans-N-(3-(2-Cyclopropylthiazol-5-yl)phenyl)-N-((trans-4-(4-methoxy-3-methylphenyl)cyclohexyl)methyl)-4-(methylsulfonamido) cyclohexanecarboxamide] | ≤ 250 nM |
| COCC(=O)N[C@H]1CC[C@H](C(=O)N(C[C@H]2CC[C@H](c3ccc(OC)c(C)c3)CC2)c2cccc(-c3cnc(C4CC4)s3)c2)CC1 [Compound 25.12, trans-N-(3-(2-Cyclopropylthiazol-5-yl)phenyl)-N-((trans-4-(4-methoxy-3-methylphenyl)cyclohexyl)methyl)-4-(2-methoxyacetamido) cyclohexanecarboxamide] | ≤ 250 nM |
| COc1ccc([C@H]2CC[C@H](CN(c3cccc(-c4cnc(C5CC5)s4)c3)C(=O)[C@H]3CC[C@H](NC(=O)COC(C)=O)CC3)CC2)cc1C [Compound 25.13, 2-((trans-4-((3-(2-Cyclopropylthiazol-5-yl)phenyl)((trans-4-(4-methoxy-3-methylphenyl)cyclohexyl)methyl)carbamoyl)cyclohexyl)amino)-2-oxoethyl acetate] | ≤ 250 nM |
| COc1ccc([C@H]2CC[C@H](CN(c3cccc(-c4cnc(C5CC5)s4)c3)C(=O)[C@H]3CC[C@H](NC(=O)CO)CC3)CC2)cc1C [Compound 25.14, trans-N-(3-(2-Cyclopropylthiazol-5-yl)phenyl)-4-(2-hydroxyacetamido)-N-((trans-4-(4-methoxy-3-methylphenyl)cyclohexyl)methyl) cyclohexanecarboxamide] | ≤ 250 nM |
| CNC(=O)OCC(=O)N[C@H]1CC[C@H](C(=O)N(C[C@H]2CC[C@H](c3ccc(OC)c(C)c3)CC2)c2cccc(-c3cnc(C4CC4)s3)c2)CC1 [Compound 25.15, 2-((trans-4-((3-(2-Cyclopropylthiazol-5-yl)phenyl)((trans-4-(4-methoxy-3-methylphenyl)cyclohexyl)methyl)carbamoyl)cyclohexyl)amino)-2-oxoethyl methylcarbamate] | ≤ 250 nM |
| CCCC(=O)N[C@H]1CC[C@H](C(=O)N(C[C@H]2CC[C@H](c3ccc(OC)c(C)c3)CC2)c2cccc(-c3cnc(C4CC4)s3)c2)CC1 [Compound 25.16, trans-4-Butyramido-N-(3-(2-cyclopropylthiazol-5-yl)phenyl)-N-((trans-4-(4-methoxy-3-methylphenyl)cyclohexyl)methyl) cyclo hexanecarboxamide] | ≤ 250 nM |
| CCCCC(=O)N[C@H]1CC[C@H](C(=O)N(C[C@H]2CC[C@H](c3ccc(OC)c(C)c3)CC2)c2cccc(-c3cnc(C4CC4)s3)c2)CC1 [Compound 25.17, trans-N-(3-(2-Cyclopropylthiazol-5-yl)phenyl)-N-((trans-4-(4-methoxy-3-methylphenyl)cyclohexyl)methyl)-4-pentanamidocyclohexanecarboxamide] | ≤ 250 nM |
| COc1ccc([C@H]2CC[C@H](CN(c3cccc(-c4cnc(C5CC5)s4)c3)C(=O)[C@H]3CC[C@H](NC(=O)CC(C)C)CC3)CC2)cc1C [Compound 25.18, trans-N-(3-(2-Cyclopropylthiazol-5-yl)phenyl)-N-((trans-4-(4-methoxy-3-methylphenyl)cyclohexyl)methyl)-4-(3-methylbutanamido) cyclohexanecarboxamide] | ≤ 250 nM |
| COC(=O)N[C@H]1CC[C@H](C(=O)N(C[C@H]2CC[C@H](c3ccc(OC)c(C)c3)CC2)c2cccc(-c3cnn(C4CC4)c3)c2)CC1 [Compound 26, Methyl (trans-4-((3-(1-cyclopropyl-1H-pyrazol-4-yl)phenyl)((trans-4-(4-methoxy-3-methylphenyl)cyclohexyl)methyl)carbamoyl)cyclohexyl)carbamate] | ≤ 250 nM |
| COc1ccc([C@H]2CC[C@H](CN(c3cccc(-c4cnn(C5CC5)c4)c3)C(=O)[C@H]3CC[C@H](NC(C)=O)CC3)CC2)cc1C [Compound 26.01, trans-4-Acetamido-N-(3-(1-cyclopropyl-1H-pyrazol-4-yl)phenyl)-N-((trans-4-(4-methoxy-3-methylphenyl)cyclohexyl)methyl)cyclohexanecarboxamide] | ≤ 250 nM |
| COc1ccc([C@H]2CC[C@H](CN(c3cccc(-c4cnn(C5CC5)c4)c3)C(=O)[C@H]3CC[C@H](NS(C)(=O)=O)CC3)CC2)cc1C [Compound 26.02, trans-N-(3-(1-Cyclopropyl-1H-pyrazol-4-yl)phenyl)-N-((trans-4-(4-methoxy-3-methylphenyl)cyclohexyl)methyl)-4-(methylsulfonamido) cyclohexanecarboxamide] | ≤ 250 nM |
| COc1ccc([C@H]2CC[C@H](CN(c3cccc(-c4cnn(C5CC5)c4)c3)C(=O)[C@H]3CC[C@H](NC(=O)CO)CC3)CC2)cc1C [Compound 26.03, trans-N-(3-(1-Cyclopropyl-1H-pyrazol-4-yl)phenyl)-4-(2-hydroxyacetamido)-N-((trans-4-(4-methoxy-3-methylphenyl)cyclohexyl)methyl) cyclohexanecarboxamide] | ≤ 250 nM |

Source: patent US20220089575A1, “FARNESOID X RECEPTOR AGONISTS AND USES THEREOF” (Metacrine, Inc., priority 2017, published 2022)
